Reference: patent publication US5424303A, “Substituted aminophosphonate derivatives, process for their preparation and pharmaceutical compositions containing them” (Symphar SA, priority 1992, dated 1995)

Columns and labels:
plasma cholesterol = experiment: Hypocholesterolemic activity, plasma cholesterol in mice fed test compound in diet; format: in vivo, OF1 strain mice; conditions: for change in vivo at 180 mg/kg/day: Mus musculus, feed or water, 240 h, read-out: Plasma Cholesterol (% Control), 0.1% compound in food, 10 days, ca. 180 mg/kg daily, mouse
Description: A. Hypocholesterolemic activity
Mouse fed a normal diet is a convenient model which was proposed by several authors (P. Olivier et al, Atherosclerosis 70, 107-114, 1988) ,for the screening for hypocholesterolemic drugs. OF1 strain mice (Iffa Credo) weighing between 25 and 35 g were divided into 5 groups of 5 animals each, four groups received the test compounds and the fifth group served as control. The test compounds were dissolved in diethyl ether. The ether solution was added to food to obtain a final concentration of 0.1%. compound in food. Ether was then evaporated at room temperature. The animals were fed for 10 days, the dally food intake corresponds to ca. 180 mg/kg. After an overnight fast, they were sacrificed by decapitation under ether anesthesia. Blood samples were collected using EDTA as anticoagulant.
Plasma cholesterol was measured by an enzymatic test (DIAMED, Morat, Switzerland). The mean values of each group receiving the test or reference compounds were expressed as percent of mean value of the contemporary control.

[1] = system: lipid peroxidation (rat liver homogenate); experiment: Antioxidant activity, inhibition of iron induced lipid peroxidation in liver homogenate; format: biochemical, Wistar rat; conditions: FeSO4, 37° C., 2 h; <25 μM where IC50 was not determined
Description: The liver of a Wistar rat anesthetized with ether was collected and homogenized in 4 volumes of phosphate buffer (+4° C., pH 7.4) by means of a Potter. After centrifugation at 2000 rpm for 10 min the supernatant obtained was kept at +4° C. Lipid peroxidation was carried out in presence of FeSOhd according to the method described by A. T. Quitaniha et at, Ann.
The mixture contained 1.7 ml phosphate buffer, 0.2 ml homogenate and 0.1 ml of a 2 mM FeSO4 solution. The test compounds were added in a volume of 61 μl of ethanol or DMSO. Oxydation was carried out at 37° C. for 2 h and was stopped by the addition of 20 μl of 2% ethanolic solution of BHT.

HMGCoA reductase = experiment: Inhibition of the enzyme HMGCoA reductase; format: biochemical; conditions: positive control
Hep G2 cells = experiment: Incorporation of 14C acetate in cholesterol synthesized by Hep G2 cells; format: cell-based; conditions: positive control
CaCo-2 = format: cell-based
Source text: In these two tests the positive control Lovastatin (hypocholesterolemic drug with HMGCoA reductase inhibitory activity) inhibits the enzyme and the ^14 C acetate incorporation by more than 98%. The mechanism of hypocholesterolemia of this class is different and potentially unique.

[2] = system: deposition of cholesterol in the arteries; conditions: hereditary atherosclerotic rabbits; cited from earlier work
xanthomas = conditions: patients suffering from familial hypercholesterolemia; cited from earlier work

| Structure (SMILES) | change in vivo at 180 mg/kg/day (plasma cholesterol) | IC50 [1] | also measured |
| --- | --- | --- | --- |
| CCOP(=O)(OCC)C(NCCCc1ccccc1)c1cc(C(C)(C)C)c(OC)c(C(C)(C)C)c1 (stereo not drawn) [Compound 67, Diethyl α-(3.5-di-tert-butyl-4-methoxyphenyl)-N-(3-phenylpropyl)-aminomethylphosphonate] | -22% | > 25 µM | – |
| CCOP(=O)(OCC)C(Cc1cc(C(C)(C)C)c(O)c(C(C)(C)C)c1)NCCCc1ccccc1 (stereo not drawn) [Compound 68, Diethyl α-(3,5-di-tert-butyl-4-hydroxybenzyl)-N-(3-phenylpropyl)-aminomethylphosphonate] | -18% | < 25 µM | – |
| CCOP(=O)(OCC)C(NCc1ccccc1)c1ccc(O)c(OC)c1 (stereo not drawn) [Compound 70] | -10% | > 25 µM | – |
| CCOP(=O)(OCC)C(NCc1ccccc1)c1cc(OC)c(O)c(OC)c1 (stereo not drawn) [Compound 71] | 1% | > 25 µM | – |
| CCOP(=O)(OCC)C(NCCc1ccccc1)c1cc(C)c(O)c(C)c1 (stereo not drawn) [Compound 72] | -1% | > 25 µM | – |
| CCOP(=O)(OCC)C(NCCc1ccccc1)c1cc(C(C)CC)c(O)c(C(C)CC)c1 (stereo not drawn) [Compound 73, Diethyl α-(3,5 di-sec-butyl-4-hydroxyphenyl)-N-(2-phenylethyl) aminomethylphosphonate] | -40% | 2.9 µM | decrease plasma cholesterol by (plasma cholesterol; mouse, 0.1% in food, 10 days): more than 30% |
| CCOP(=O)(OCC)C(NCCc1ccccc1)c1cc(C(C)C)c(O)c(C(C)C)c1 (stereo not drawn) [Compound 74] | -16% | 4.4 µM | – |
| CCOP(=O)(OCC)C(NCCc1ccccc1)c1cc(C)c(O)c(C(C)(C)C)c1 (stereo not drawn) [Compound 75] | -12% | 4.8 µM | – |
| CCOP(=O)(OCC)C(NCCc1ccc(Cl)cc1)c1ccc(O)cc1 (stereo not drawn) [Compound 76] | -16% | > 25 µM | – |
| CCOP(=O)(OCC)C(NCCCc1ccccc1)c1ccc(O)c([N+](=O)[O-])c1 (stereo not drawn) [Compound 77] | -3% | > 25 µM | – |
| CCOP(=O)(OCC)C(NCCCc1ccccc1)c1ccc(O)c(O)c1 (stereo not drawn) [Compound 78] | -5% | < 25 µM | – |
| CCOP(=O)(OCC)C(NCCCc1ccccc1)c1ccc(OC)cc1 (stereo not drawn) [Compound 79] | 9% | > 25 µM | – |
| CCOP(=O)(OCC)C(NCCCc1ccccc1)c1ccc2c(c1)OCO2 (stereo not drawn) [Compound 80, Diethyl α-(3,4t-methylenedioxyphenyl)-N-(3-phenylpropyl)-aminomethylphosphonate] | -29% | > 25 µM | – |
| CC[C@H](C)C(=O)O[C@H]1C[C@@H](C)C=C2C=C[C@H](C)[C@H](CC[C@@H]3C[C@@H](O)CC(=O)O3)[C@H]21 [Lovastatin] | – | – | inhibition of HMGCoA reductase (HMGCoA reductase): more than 98%; inhibition of 14C acetate incorporation, Hep G2 (Hep G2 cells): more than 98%; inhibition of 14C acetate incorporation, CaCo-2 (CaCo-2): more than 98% |
| CC(C)(Sc1cc(C(C)(C)C)c(O)c(C(C)(C)C)c1)Sc1cc(C(C)(C)C)c(O)c(C(C)(C)C)c1 [Probucol] | – | > 25 µM | effect on deposition of cholesterol in the arteries (in words) [2]: prevents the deposition of cholesterol in the arteries; effect on xanthomas (in words) (xanthomas): induces the regression of xanthomas |
